Test results reported in patent US12083106B2, “Methods of using a pharmaceutical composition containing pirfenidone in sustained-release tablet form” (Excalibur Pharmaceuticals, Inc., priority 2011, dated 2024).

Key:
[1] = Pirfenidone bioavailability study in healthy volunteers; assay type: in vivo, human; conditions: 600 mg sustained-release tablet form; 11 healthy volunteers
Procedure: Pirfenidone Bioavailability Study in Healthy Volunteers According to the Pharmacopoeia Standards
Said analyses were performed by a laboratory authorized by the Mexican Health Secretariat (Data not shown).
Maximum concentration data evidenced that the bioavailability is extrapolated to other lower concentrations, i.e., 100, 200 or 400 mg.

[2] = system: chronic renal failure secondary to primary nephropathy; experiment: Prospective, open label, 12-month clinical trial in patients with primary nephropathy with renal damage; assay type: in vivo, human; conditions: oral sustained-release tablets every 12 hours, 12 months
Procedure: The present study is a prospective, open label, 12-month clinical trial including 30 patients with primary nephropathy, with renal damage (stages 1 to 4 of the KDIGO Classification) between 10 and 40 years of age, from both sexes. […] Said evaluation phase was useful so that the patient could become his/her own control. All of the patients received oral Pirfenidone (in sustained-release tablet form) administered every 12 hours containing 2400 mg/1.73 m^2 BSA, equivalent to […].; besides, they also received a conventional treatment appropriate for primary nephropathy and CRF, such as antihypertensives, alpha-ketoanalogues, phosphate chelating agents, angiotensin II antagonist, low-protein diet, etc. […] Two Doppler ultrasonographic studies were performed on each patient at the beginning of the study and at 12 months. Drug adverse events were evaluated and the loss of renal function and loss percentage were quantified. The use of Pirfenidone in renal function was monitored through cystatin C, plasma reciprocal creatinine and creatinine clearance in 24-hour urine collection.

[3] = system: breast capsular contracture; experiment: Pilot open prospective study in patients with breast capsular contracture (Baker scale, echosonography); assay type: in vivo, human; conditions: for Implant fibrous capsule ILQ thickness, mean: Inner Lower Quadrant; for Implant fibrous capsule IUQ thickness, mean: Inner Upper Quadrant; for Implant fibrous capsule OLQ thickness, mean: Outer Lower Quadrant; for Implant fibrous capsule OUQ thickness, mean: Outer Upper Quadrant
Procedure: It is a pilot, open, prospective, longitudinal and analytical essay in which 17 patients diagnosed with an important breast capsular contracture (Grade III and Grade IV, Baker Scale) were treated with Pirfenidone 600 mg administered orally as sustained-release tablets three times per day (every 8 hours) during six months. A blood sample was taken from each patient in order to determine the genetic markers (TGF-β1). […], three Breast echosonographies were made, one at the beginning, the other at the end of the treatment (6 months) and the last one 6 months after the suspension of Pirfenidone treatment (12 months). Two parameters were evaluated: antero-posterior diameter and capsular thickness in all its quadrants (contrasting thickness measurements with the radiological parameters established by Tomas Stavros, 2006 and the radiological clinical correlation of thickness vs Baker Scale established by Alon Zahavi M D, 2006 for the diagnosis of Capsular Contracture). Free liquid in the capsule was looked for, as well as retraction or rupture signs through 5-12 MHz linear or curve transductors. During 12 months, a Breast Clinical Evaluation was also conducted on a monthly basis using Baker Classification. Deformation, texture through palpation and sensitivity were evaluated. A registration of each evaluation was made with digital photographs. The clinical and radiological changes of each breast were evaluated by a plastic surgeon and a qualified radiologist. The statistical analysis included 20 cases, taking into account that 3 patients presented bilateral capsular contracture of different grade in each breast; a total of 20 breasts were analyzed. Finally, the statistical analysis of the ordinal scale variables was conducted with means and ranges; and for the contrasts, Wilcoxon matched-pairs signed-ranks and Chi^2 were used. With regard to the Ratio Interval variables, the mean and standard deviation were used; and for the contrast, Student's t test for paired samples was used in which a case is compared against another case.

[4] = system: TGF-β1; experiment: TGF-β1 serum levels in female rats with silicone implants in mammary glands (ELISA); assay type: in vivo; conditions: daily oral regimen during 21 days; extended release formula before conversion into tablets
Procedure: (§1) TGF-β1 serum levels determination in female rats submitted to the placement of silicone implants in mammary glands for inducing contracture development are shown in FIG. 5. The animals were administered a daily regimen of oral Pirfenidone during 21 days. […] TGF-β1 levels were determined through a commercial ELISA kit.

[5] = system: TGF-β1; experiment: TGF-β1 serum levels in animals with chronic hepatic damage by CCl4 (ELISA); assay type: in vivo; conditions: treated vs not treated
[6] = system: TNF-α; experiment: TNF-α serum levels in female rats with silicone implants in mammary glands (ELISA); assay type: in vivo; conditions: daily oral regimen during 21 days; extended release formula before conversion into tablets
Procedure: as §1, with “TNF-α” for “TGF-β1”, “6.” for “5.”, “animals” for “animals were”

[7] = system: TNF-α; experiment: TNF-α serum levels in animals with chronic hepatic damage by CCl4 (ELISA); assay type: in vivo; conditions: treated vs not treated
[8] = system: progressive renal disease; conditions: animal models; cited from earlier work
[9] = renal failure patients treated with hemodialysis; cited from earlier work
[10] = system: fibrosis in the mammary capsule; conditions: administered orally; female rats with silicone implants; cited from earlier work
[11] = system: focal segmental glomerulosclerosis; conditions: nephrotic syndrome and focal segmental glomerulosclerosis; cited from earlier work
[12] = system: hepatic fibrosis; conditions: patients with hepatic fibrosis; expanded study; cited from earlier work
[13] = Initial (before treatment), 20 cases

time till which bioavailability is prolonged [1]: 12 h
Structure (SMILES): Cc1ccc(=O)n(-c2ccccc2)c1 [Pirfenidone, 5-methyl-1-phenyl-2-(1H)-pyridone]
renal damage progression rate ([2]; 2400 mg/1.73 m^2 BSA, phases 1-4 KDIGO): influenced positively
drug side-effects in patients with primary nephropathy [2]: limited to a minimum percentage of patients and disappeared rapidly
effect on proteinuria [2]: beneficial effect
histological damage to the affected kidneys (comparative ultrasonographic changes, beginning vs end of treatment) [2]: detains the histological damage
change of breast capsular contracture grade, all cases ([3]; 600 mg SR tablets orally three times per day, six months, 20 cases): reduction of breast capsular contracture grade
cases with relapse of capsular contracture (WCSECC to grade III) ([3]; 6-month follow up after Pirfenidone discontinuation, 1 case grade IV, use of steroids and excessive exercise): 5%
number of cases WCSECC (Without Clinical or Sonographic Evidence of Capsular Contracture) ([3]; 6 Months (end of treatment, 600 mg SR tablets three times per day), 20 cases): 10 cases
number of cases with contracture grade I (Baker Scale) ([3]; 6 Months, 20 cases): 5 cases
number of cases with contracture grade III (Baker Scale) ([3]; 6 Months, 20 cases): 5 cases
patients with side effects (stomach aches, fatigue, skin dermatosis, photosensitivity) ([3]; 6 of 17 patients): 35%
mean duration of side effects ([3]; 6 patients with side effects): 10.8 days
BAKER SCALE Mean ([3]; 12-month follow-up, n = 20, P 0.0001 vs beginning): 0.5
number of cases WCSECC ([3]; 12 months (6 months after suspension of treatment), 20 cases): 14 cases
number of cases with contracture grade II (Baker Scale) ([3]; 12 months, 20 cases): 1 cases
number of cases with contracture grade III (Baker Scale) ([3]; 12 months, 20 cases): 5 cases
BAKER SCALE Mean (Range) ([3]; Beginning of the study, n = 20): 4 (3-4)
Implant fibrous capsule ILQ thickness, mean ([3]; Beginning): 1.86 centimeters
Implant fibrous capsule IUQ thickness, mean ([3]; Beginning): 1.6 centimeters
Implant fibrous capsule OLQ thickness, mean ([3]; Beginning): 1.775 centimeters
Implant fibrous capsule OUQ thickness, mean ([3]; Beginning): 1.505 centimeters
Implant fibrous capsule ILQ thickness, mean ([3]; End): 1.115 centimeters
Implant fibrous capsule IUQ thickness, mean ([3]; End): 1.19 centimeters
Implant fibrous capsule OLQ thickness, mean ([3]; End): 1.185 centimeters
Implant fibrous capsule OUQ thickness, mean ([3]; End): 1.18 centimeters
number of cases with contracture grade III (Baker Scale) [3, 13]: 9 cases
number of cases with contracture grade IV (Baker Scale) [3, 13]: 11 cases
breast capsular contracture evolution, Baker scale (FIG. 1) ([3]; all the cases, after PFD administration): important improvement
Initial AP Diameter of the breast implant, mean ([3]; echographically measured at the beginning (before treatment)): 7.57 centimeters
AP Diameter at 12 months, mean ([3]; echographically measured, P = N.S. vs 6 months): 6.085 centimeters
AP Diameter at 6 months, mean ([3]; echographically measured, P ≤ .001 vs beginning): 6.425 centimeters
cases with gradual reduction of antero-posterior diameter (APD) and capsule thickness ([3]; echographies at 6 and 12 months, 19 cases): 95%
cases showing retraction data and light subcapsular liquid ([3]; end of the study, group that passed from grade IV to grade III, two cases): 10%
contracture state of left breast, single patient (FIG. 2) ([3]; initially grade III, after six-month PFD administration): Not Detectable by Ultrasound or Clinical Examination
contracture state of both breasts, single patient (FIG. 3) ([3]; initially grade IV, end of the protocol): Capsular Contracture Not Detectable by Ultrasound or Clinical Examination
cases reduced from grade IV to grade II ([3]; of 20 cases (1 case)): 5%
cases initially grade IV that concluded WCSECC ([3]; of 20 cases (5 cases)): 25%
cases reduced from grade IV to grade III ([3]; of 20 cases (5 cases)): 25%
cases initially grade III that concluded WCSECC ([3]; of 20 cases (9 cases)): 45%
cases concluded Without Clinical or Sonographic Evidence of Capsular Contracture (WCSECC) ([3]; of 20 cases (n=14)): 70%
cases of relapse (FIG. 1) ([3]; six-month follow-up): one
relapse, single patient (FIG. 2) ([3]; six-month follow-up): lack of relapse
action on TGF-β production (TGF-β1 serum levels, FIG. 5) [4]: extremely potent and selective inhibiting action
TGF-β1 serum level (FIG. 5) [5]: lower TGF-β1 serum level
action on TNF-α (TNF-α serum levels, FIG. 6) [6]: extremely potent and selective TNF-α inhibiting action
TNF-α serum level (FIG. 6) [7]: lower TNF-α serum level
TGF-β expression [8]: reduces TGF-β expression
development of progressive renal disease [8]: Can prevent the development of progressive renal disease
growth, development and toxic effects in treated animals [8]: grew and developed normally and without toxic effects
proteinuria levels [8]: Reduces proteinuria levels
renal function / collagen accumulation in the renal cortex [8]: Improves renal function reducing collagen accumulation in the renal cortex
urea nitrogen and serum creatinine levels [8]: Reduces urea nitrogen and serum creatinine levels
need to adjust dose in patients with renal damage (pharmacokinetics) [9]: not necessary to adjust the pirfenidone dose
tolerability in patients with Terminal Chronic Renal Failure (TCRF) [9]: well tolerated
development of fibrosis in the mammary capsule [10]: prevents the development of the characteristic fibrosis
delay of renal function impairment [11]: favorable results
effects evidenced through hepatic biopsy [12]: beneficial effects
